Assay results taken from US12037344B2, “NLRP3 modulators” (INNATE TUMOR IMMUNITY, INC., priority 2018, dated 2024).

What was measured:
[1] = target: T1, TLR8 (Homo sapiens, UniProt Q9NR97); assay: In vitro human TLR8 binding reporter assay (HEK-Blue, NF-kB/AP1-inducible SEAP); format: cell-based; conditions: activity range class, read-out: TLR8 Agonist EC50
T1 construct: human HEK-Blue cells co-expressing a TLR7 or TLR8 gene
T1 sequence (Q9NR97 27-1041): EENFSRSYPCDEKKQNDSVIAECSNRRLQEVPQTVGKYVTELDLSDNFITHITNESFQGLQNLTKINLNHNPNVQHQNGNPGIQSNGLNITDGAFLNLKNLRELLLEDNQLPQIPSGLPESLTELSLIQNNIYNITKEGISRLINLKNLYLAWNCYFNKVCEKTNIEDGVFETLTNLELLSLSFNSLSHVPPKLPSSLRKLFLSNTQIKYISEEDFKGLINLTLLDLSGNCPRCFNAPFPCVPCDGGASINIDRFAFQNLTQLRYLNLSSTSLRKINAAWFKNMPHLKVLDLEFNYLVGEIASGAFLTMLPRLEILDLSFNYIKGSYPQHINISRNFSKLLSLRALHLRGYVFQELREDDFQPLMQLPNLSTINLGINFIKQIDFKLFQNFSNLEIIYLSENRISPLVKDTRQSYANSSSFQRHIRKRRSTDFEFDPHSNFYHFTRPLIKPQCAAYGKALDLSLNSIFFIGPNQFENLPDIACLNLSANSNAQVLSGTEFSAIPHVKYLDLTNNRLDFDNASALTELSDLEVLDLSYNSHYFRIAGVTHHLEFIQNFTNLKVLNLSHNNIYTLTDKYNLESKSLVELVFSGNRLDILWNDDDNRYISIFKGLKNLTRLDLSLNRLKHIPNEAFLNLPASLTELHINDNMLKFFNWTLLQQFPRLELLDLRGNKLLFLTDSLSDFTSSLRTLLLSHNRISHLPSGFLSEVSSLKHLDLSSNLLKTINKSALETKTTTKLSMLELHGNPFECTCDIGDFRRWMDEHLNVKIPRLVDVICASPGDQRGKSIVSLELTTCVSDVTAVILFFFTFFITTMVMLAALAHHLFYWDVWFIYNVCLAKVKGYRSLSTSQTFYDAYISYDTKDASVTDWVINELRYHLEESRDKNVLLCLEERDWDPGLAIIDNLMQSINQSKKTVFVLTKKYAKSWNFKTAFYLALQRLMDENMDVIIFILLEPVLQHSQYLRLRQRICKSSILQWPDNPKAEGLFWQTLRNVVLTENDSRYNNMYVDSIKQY
Method in brief: (§1)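 Cells are seeded and grown for 24 h. Compounds or DMSO are then added and incubated 18 h at 37 °C. Quanti-Blue is added, and SEAP is read after thirty minutes. EC50 values are normalized, with RLU from 50 μM reference standard setting 100% Ymax.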

[2] = target: T2, TLR7 (Homo sapiens, UniProt Q9NYK1); assay: In vitro human TLR7 binding reporter assay (HEK-Blue, NF-kB/AP1-inducible SEAP); format: cell-based; conditions: activity range class, read-out: TLR7 Agonist EC50
T2 construct: human HEK-Blue cells co-expressing a TLR7 or TLR8 gene
T2 sequence (Q9NYK1 27-1049): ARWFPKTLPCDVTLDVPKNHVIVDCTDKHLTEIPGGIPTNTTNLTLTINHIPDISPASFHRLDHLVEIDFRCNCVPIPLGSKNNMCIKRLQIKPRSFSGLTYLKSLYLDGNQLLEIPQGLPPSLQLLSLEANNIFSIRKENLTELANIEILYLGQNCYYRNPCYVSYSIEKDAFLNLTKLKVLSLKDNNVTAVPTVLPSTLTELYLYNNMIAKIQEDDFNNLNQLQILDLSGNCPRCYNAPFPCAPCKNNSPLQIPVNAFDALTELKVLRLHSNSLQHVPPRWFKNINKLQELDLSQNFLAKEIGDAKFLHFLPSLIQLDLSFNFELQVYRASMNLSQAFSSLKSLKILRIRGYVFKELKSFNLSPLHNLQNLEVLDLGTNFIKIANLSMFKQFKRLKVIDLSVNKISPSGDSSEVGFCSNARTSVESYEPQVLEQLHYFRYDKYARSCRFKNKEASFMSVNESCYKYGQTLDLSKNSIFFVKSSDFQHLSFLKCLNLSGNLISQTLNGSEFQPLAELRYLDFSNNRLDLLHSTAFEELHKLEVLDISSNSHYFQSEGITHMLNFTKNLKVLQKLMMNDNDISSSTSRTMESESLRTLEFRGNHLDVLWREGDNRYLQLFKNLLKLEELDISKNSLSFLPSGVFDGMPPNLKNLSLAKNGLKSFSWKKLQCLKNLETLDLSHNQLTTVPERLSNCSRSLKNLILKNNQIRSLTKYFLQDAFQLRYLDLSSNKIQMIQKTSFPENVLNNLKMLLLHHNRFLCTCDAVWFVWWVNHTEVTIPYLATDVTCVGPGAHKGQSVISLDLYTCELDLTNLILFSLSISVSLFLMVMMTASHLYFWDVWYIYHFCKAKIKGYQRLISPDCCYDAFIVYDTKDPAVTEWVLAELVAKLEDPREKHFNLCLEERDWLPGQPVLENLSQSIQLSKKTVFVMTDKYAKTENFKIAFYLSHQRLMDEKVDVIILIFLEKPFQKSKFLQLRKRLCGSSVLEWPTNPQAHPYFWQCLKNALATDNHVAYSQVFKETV
Method in brief: as §1

[3] = system: THP-1 cells; assay: Measurement of IL-1β production, hTRF protocol (second alternative procedure), THP-1 cells; format: cell-based, human; conditions: Homo sapiens, THP-1, IL-1β production, human; read-out: NLRP3 hILIB EC50
Method in brief: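 Compounds, dilution series starting at a final 10 μM, were incubated 2 hours at 37° C with PMA-differentiated THP-1 cells (50 ng/ml overnight; 50,000 cells/well, 2% FBS RPMI). Released IL-1β quantified in supernatant by hTRF kit with 1:40 antibody dilution, 4° C overnight, 665/615 nm ratio.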

SMILES	EC50 [1] [µM]	EC50 [2] [µM]	EC50 [3] [µM]
CN(C)CCc1cc2c(N)nc3cc(-c4ccn[nH]4)ccc3c2[nH]1 [Example 153, 2-[2-(dimethylamino)ethyl]-7-(1H-pyrazol-5-yl)-1H-pyrrolo[3,2-c]quinolin-4-amine]	> 100	> 100	0.7
CCC(=O)NCCc1cc2c(N)nc3cc(-c4ccn[nH]4)ccc3c2[nH]1 [Example 154, N-{2-[4-amino-7-(1H-pyrazol-5-yl)-1H-pyrrolo[3,2-c]quinolin-2-yl]ethyl}propanamide]	> 100	> 100	1
Nc1nc2cc(-c3ccn[nH]3)ccc2c2[nH]c(CCNC(=O)c3ccccn3)cc12 [Example 155, N-[2-[4-amino-7-(1H-pyrazol-5-yl)-1H-pyrrolo[3,2-c]quinolin-2-yl]ethyl]pyridine-2-carboxamide]	> 100	> 100	0.01
Nc1nc2cc(-c3ccn[nH]3)ccc2c2[nH]c(CC3CCCO3)cc12 (stereo not drawn) [Example 156, 2-[(oxolan-2-yl)methyl]-7-(1H-pyrazol-5-yl)-1H-pyrrolo[3,2-c]quinolin-4-amine]	> 100	> 100	0.31
CC(C)(F)C(=O)NCCn1nc2c(N)nc3cc(-c4ccn[nH]4)ccc3c2n1 [Example 157, N-{2-[4-amino-7-(1H-pyrazol-5-yl)-2H-[1,2,3]triazolo[4,5-c]quinolin-2-yl]ethyl}-2-fluoro-2-methylpropanamide]	> 100	> 100	5.17
Nc1nc2cc(-c3ccn[nH]3)ccc2c2nn(CCNC(=O)c3ccc(F)cn3)nc12 [Example 160]	> 100	> 100	0.7
CN(C)CCn1nc2c(N)nc3cc(-c4ccn[nH]4)ccc3c2n1 [Example 161]	> 100	> 100	5.82
COCCn1nc2c(N)nc3cc(-c4ccn[nH]4)ccc3c2n1 [Example 162]	> 100	> 100	1.22
Nc1nc2cc(-c3cc[nH]n3)ccc2c2cn(CC(=O)Nc3ccccc3F)nc12 [Example 164]	> 100	> 100	0.25
Nc1nc2cc(-c3cc[nH]n3)ccc2c2cn(Cc3ccncc3)nc12 [Example 165]	20 to 100	> 100	0.14
Nc1nc2cc(-c3cc[nH]n3)ccc2c2cn(Cc3cccnc3)nc12 [Example 167]	> 100	> 100	0.15
Nc1nc2cc(-c3cc[nH]n3)ccc2c2cn(Cc3cscn3)nc12 [Example 168]	20 to 100	> 100	0.2
Nc1nc2cc(-c3cc[nH]n3)ccc2c2cn(Cc3nc(-c4ccccc4)no3)nc12 [Example 169]	20 to 100	> 100	0.39
CS(=O)(=O)CCn1cc2c(n1)c(N)nc1cc(-c3cc[nH]n3)ccc12 [Example 170]	> 100	> 100	1.98
CS(=O)(=O)CCCn1cc2c(n1)c(N)nc1cc(-c3cc[nH]n3)ccc12 [Example 171]	> 100	> 100	0.6
Nc1nc2cc(-c3cc[nH]n3)ccc2c2cn(Cc3nnc(-c4ccccc4)o3)nc12 [Example 172]	> 100	> 100	0.21
Cc1cc(Cn2cc3c(n2)c(N)nc2cc(-c4cc[nH]n4)ccc23)no1 [Example 173]	1 to 20	> 100	0.21
Cc1nc(Cn2cc3c(n2)c(N)nc2cc(-c4cc[nH]n4)ccc23)no1 [Example 174]	20 to 100	1 to 20	0.23

Next, values leading:

EC50 [1] [µM]	EC50 [2] [µM]	EC50 [3] [µM]	SMILES
20 to 100	> 100	0.97	Nc1nc2cc(-c3ccn[nH]3)ccc2c2nn(CCNC(=O)c3csc(Cl)n3)nc12 [Example 158]
> 100	> 100	0.68	Nc1nc2cc(-c3ccn[nH]3)ccc2c2nn(CCNC(=O)c3ccccn3)nc12 [Example 159]
> 100	> 100	0.06	Nc1nc2cc(-c3cc[nH]n3)ccc2c2cn(CCc3ccccn3)nc12 [Example 163]
> 100	> 100	0.31	Cc1cc(C)n(CCn2cc3c(n2)c(N)nc2cc(-c4cc[nH]n4)ccc23)n1 [Example 166]
> 100	> 100	0.29	Nc1nc2cc(-c3cc[nH]n3)ccc2c2cn(CCc3c[nH]cn3)nc12 [Example 175]
20 to 100	20 to 100	0.05	Nc1nc2cc(-c3cc[nH]n3)ccc2c2cn(CCNC(=O)c3coc(Cl)n3)nc12 [Example 176]
> 100	> 100	2.23	Nc1nc2cc(-c3cc[nH]n3)ccc2c2cn(CCNC(=O)[C@H]3CCCO3)nc12 [Example 177]
> 100	> 100	1.44	Nc1nc2cc(-c3cc[nH]n3)ccc2c2cn(CCNC(=O)COCC(F)(F)F)nc12 [Example 178]
> 100	> 100	6.53	Nc1nc2cc(-c3cc[nH]n3)ccc2c2cn(CCNC(=O)CC(F)(F)F)nc12 [Example 181]
> 100	> 100	1.27	N#CC1(C(=O)NCCn2cc3c(n2)c(N)nc2cc(-c4cc[nH]n4)ccc23)CC1 [Example 182]
20 to 100	> 100	0.11	Cc1nc(C(=O)NCCn2cc3c(n2)c(N)nc2cc(-n4cccn4)ccc23)co1 [Example 183]
> 100	1 to 20	0.21	COCCn1cc2c(n1)c(N)nc1cc(-c3ccn[nH]3)ccc12 [Example 185]
> 100	1 to 20	0.21	CCCCn1cc2c(n1)c(N)nc1cc(-c3ccn[nH]3)ccc12 [Example 186]
> 100	> 100	0.22	CCCn1cc2c(n1)c(N)nc1cc(-c3ccn[nH]3)ccc12 [Example 187]
> 100	> 100	0.21	CCn1cc2c(n1)c(N)nc1cc(-c3ccn[nH]3)ccc12 [Example 188]
> 100	> 100	0.59	NC(=O)CCn1cc2c(n1)c(N)nc1cc(-c3ccn[nH]3)ccc12 [Example 189]
